# Assay results: patent US12521439B2, “Methods and materials for modulating Nrf2 pathway” (The General Hospital Corporation, priority 2019, dated 2026)
# How the values were obtained:
# [1] = system: HO1, NQO1, TXNRD2 mRNA; assay: qRT-PCR of Nrf2 target genes in cancer cells; assay type: cell-based, human
# Experimental: Real-time qRT-PCR: Total RNA isolation from cultured cells was performed using RNeasy kit (Qiagen), followed by reverse transcription with OneScript cDNA synthesis Kit (ABM). mRNA expression of different genes was then analyzed by quantitative PCR using PowerUp SYBR Green Master Mix (Applied Biosystems) and performed using a QuantStudio3 real-time PCR system (Applied Biosystems). Primer sequences for HO1, NQO1, TXNRD2 were obtained from the MGH primer bank and were as follows: HO1 Forward, 5′-[…]-3′ and reverse 5′-[…]-3′; NQO1 Forward 5′-[…]-3′ and reverse 5′-[…]-3′ and Txnrd2 forward 5′-[…]-3 and reverse 5′-[…]. Oligonucleotides were synthesized by the CCIB DNA Core Facility at Massachusetts General Hospital. Expression of human GAPDH was used to mRNA normalization and relative mRNA expression was calculated using the comparative Ct method.
# [2] = system: cancer cells; assay: Cancer cell death with OBT, JQ1, OBT-JQ1; assay type: cell-based; conditions: OBT combined with JQ1, FIG. 22
# Experimental: (§1) Cell viability: Cells were plated in 96-well plates and treated with the corresponding compounds. Cell viability was measured by adding 25 μl/well of CellTiter-Glo (Promega) followed by 10 minutes incubation and transfer to a white 96-well plate. Bioluminescence was quantified using Synergy HTX multimode reader (Biotek).
# [3] = biological target: Keap1 (Homo sapiens, UniProt Q14145); assay: Differential alkylation mass spectrometry, Keap1; assay type: binding
# Keap1, sequence (Q14145 whole entry, species assumed): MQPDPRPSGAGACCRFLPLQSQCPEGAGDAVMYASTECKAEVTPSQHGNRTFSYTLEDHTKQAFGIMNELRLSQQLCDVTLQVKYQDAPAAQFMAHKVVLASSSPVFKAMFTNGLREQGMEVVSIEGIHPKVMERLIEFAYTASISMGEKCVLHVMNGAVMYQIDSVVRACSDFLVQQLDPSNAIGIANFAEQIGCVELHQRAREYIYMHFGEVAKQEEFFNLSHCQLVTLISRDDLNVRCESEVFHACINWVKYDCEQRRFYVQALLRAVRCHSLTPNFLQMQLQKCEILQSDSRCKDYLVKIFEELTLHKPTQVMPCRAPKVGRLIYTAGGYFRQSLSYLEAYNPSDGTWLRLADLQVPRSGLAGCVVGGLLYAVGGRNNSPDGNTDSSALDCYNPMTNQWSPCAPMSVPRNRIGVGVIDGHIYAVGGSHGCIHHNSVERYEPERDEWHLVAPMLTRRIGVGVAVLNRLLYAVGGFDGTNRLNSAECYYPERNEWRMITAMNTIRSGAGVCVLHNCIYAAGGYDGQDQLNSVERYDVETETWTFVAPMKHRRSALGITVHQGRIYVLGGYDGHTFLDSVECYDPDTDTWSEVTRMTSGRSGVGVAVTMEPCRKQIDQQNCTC
# [4] = system: CT2A mouse glioma cells; assay: Cytokine/chemokine array of glioma cell lysates; assay type: cell-based; conditions: OBT 4 μM, 24 hrs
# Experimental: To evaluate the effect of OBT on glioma secretome, CT2A mouse glioma cells were treated with OBT (4 μM) for 24 hrs and analyzed cell lysates by cytokine/chemokine array. GBM cells responded to OBT, Nrf2 and ROS induction, by activating several cytokines known to be involved in immune cell chemotaxis and migration (CCL2, CXCL10, IL-6). […] These innate immunity-related factors may directly contribute to control tumor growth or shape the development of adaptive immunity. Thus, OBT can induce factors that induces activation of tumor immune response.
# [5] = system: MDA-MB231 cells; assay: Cell viability (CellTiter-Glo), MDA-MB231; assay type: cell-based, human; conditions: co-treatment MLN4924 (1 μM), three days
# Experimental: Cell culture: MDA-MB-231 and U87 (U87-MG) cells were obtained from the American Type Culture Collection (ATCC). 293T human embryonic kidney fibroblasts were provided by Dr. Xandra Breakefield (Massachusetts General Hospital). All three cell lines were grown in Dulbecco's modified Eagle medium supplemented with 10% fetal bovine serum (Gemini Bio-products), 100 U penicillin, and 0.1 mg/mL streptomycin (Sigma). All cells were maintained at 37° C. in a humidified 5% CO2 incubator. GSCs were obtained from tumor tissues of GBM patients following surgical resection, under approval from the corresponding Institutional Review Board. These cells have been previously characterized (ref. 37-39) and were maintained in culture as neurospheres in Neurobasal medium (Gibco) supplemented with heparin (2 μg/mL; Sigma) and recombinant EGF (20 ng/mL) and bFGF-2 (10 ng/mL; Peprotech). Human Astrocytes were obtained from ScienCell and cultured in Astrocytes Medium (ScienCell)
# as §1
# [6] = system: GSCs (GBM8 and BT07); assay: Multiplexed quantitative (TMT) proteomics after OBT treatment; assay type: cell-based, human; conditions: 20 h after subtoxic dose, two GSC lines
# Experimental: Quantitative Proteomics: Cell pellets were lysed in a buffer of 75 mM NaCl, 50 mM HEPES pH 8.5, 10 mM sodium pyrophosphate, 10 mM sodium fluoride, 10 mM β-glycerophosphate, 10 mM sodium orthovanadate, 10 mM PMSF, Roche complete mini EDTA free protease inhibitors (1 tablet per 20 ml), and 3% SDS. Lysis was achieved by passing the suspension through a 21-gauge needle 20 times. Proteins were prepared for proteomics analysis as described previously. […] Twelve fractions were analyzed by multiplexed quantitative proteomics performed on an Orbitrap Fusion mass spectrometer (Thermo Scientifc) using a Simultaneous Precursor Selection (SPS) based MS3 method. […] For the cell line samples only MS3 with an average signal-to-noise value of larger than 40 per reporter ion as well as with an isolation specificity of larger than 0.75 were considered for quantification. […] A two-step normalization of the protein TMT-intensities was performed by first normalizing the protein intensities over all acquired TMT channels for each protein based on the median average protein intensity calculated for all proteins. To correct for slight mixing errors of the peptide mixture from each sample a median of the normalized intensities was calculated from all protein intensities in each TMT channel and the protein intensities were normalized to the median value of these median intensities. […]
compound,measurement,setting,value
"COC1=CC(=O)C(O)=C/C1=C/C=C/c1ccccc1 [OBT, (Z)-2-hydroxy-5-methoxy-4-((E)-3-phenylallylidene)cyclohexa-2,5-dien-1-one]",NQO1 and TXNRD2 mRNA,[1]; U87 and MDA-MB-231 cells,upregulated
same,HO1 mRNA expression,"[1]; different cancer cells, 8 hours, normalized to GAPDH",strong increase
same,interaction with JQ1,[2],synergizes
same,reversibility of modification at Cys151 and Cys434,"[3]; Cys151 BTB domain, Cys434 Kelch domain",partially reversible
same,covalent binding to cysteine sites of Keap1,[3]; differential alkylation,bind covalently to all identified cysteine sites
same,"cytokines involved in immune response modulation (CD40, CXCL2, CCL5, CXCL-10, IL-6)",[4],induced secretion
same,cell death with neddylation inhibitor MLN4924,[5],protection against cell death
same,heme oxygenase 1 (HMOX1; HO1) protein change,[6],top upregulated protein
